Measurements from EP4722212A1, “NOVEL COMPOUND FOR INHIBITING PROTEIN KINASES AND PHARMACEUTICAL COMPOSITION COMPRISING SAME” (Magicbullettherapeutics Co., Ltd., priority 2023, dated 2024).
Like-named read-outs stand apart in the source and are kept apart here.

Experiments:
Assay in all cases: Kinase panel
Format in all cases: biochemical
[1] = molecular target: BRSK1 (Homo sapiens, UniProt Q8TDC3); conditions: BRSK1, 1 µM; read-out: residual enzyme activity
Experimental: (§1) To measure the inhibitory activity of protein kinases against the compounds of the present invention, a biochemical assay was performed using a full kinase panel. The inhibitory efficacy of kinases was measured when Example compounds 8 and 51 were treated at a single concentration of 1 µM, and residual enzyme activity values were calculated. Kinases were identified when the calculated residual enzyme activity values were 40% or less, i.e., inhibited by 60% or more.

[2] = molecular target: DYRK4 (Homo sapiens, UniProt Q9NR20); conditions: DYRK4, 1 µM; read-out: residual enzyme activity
Experimental: as §1

[3] = molecular target: PLK3 (Homo sapiens, UniProt Q9H4B4); conditions: PLK3, 1 µM; read-out: residual enzyme activity
Experimental: as §1

[4] = molecular target: ERN1/IRE1 (Homo sapiens, UniProt O75460); conditions: ERN1/IRE1, 1 µM; read-out: residual enzyme activity
Experimental: as §1

[5] = molecular target: EPHB3 (Homo sapiens, UniProt P54753); conditions: EPHB3, 1 µM; read-out: residual enzyme activity
Experimental: as §1

[6] = molecular target: IKKB/IKBKB (Homo sapiens, UniProt O14920); conditions: read-out: residual enzyme activity
Experimental: as §1

[7] = molecular target: IKKA/CHUK (Homo sapiens, UniProt O15111); conditions: read-out: residual enzyme activity
Experimental: as §1

[8] = molecular target: ARK5/NUAK1 (Homo sapiens, UniProt O60285); conditions: read-out: residual enzyme activity
Experimental: as §1

[9] = molecular target: FLT1/VEGFR1 (Homo sapiens, UniProt P17948); conditions: FLT1/VEGFR1, 1 µM; read-out: residual enzyme activity
Experimental: as §1

[10] = molecular target: MELK (Homo sapiens, UniProt Q14680); conditions: read-out: residual enzyme activity
Experimental: as §1

[11] = molecular target: FGR (Homo sapiens, UniProt P09769); conditions: read-out: residual enzyme activity
Experimental: as §1

[12] = molecular target: LCK2/ICK (Homo sapiens, UniProt Q9UPZ9); conditions: read-out: residual enzyme activity
Experimental: as §1

[13] = molecular target: MASTL (Homo sapiens, UniProt Q96GX5); conditions: read-out: residual enzyme activity
Experimental: as §1

[14] = molecular target: GSK3B (Homo sapiens, UniProt P49841); conditions: read-out: residual enzyme activity
Experimental: as §1

[15] = molecular target: SNARK/NUAK2 (Homo sapiens, UniProt Q9H093); conditions: SNARK/NUAK2, 1 µM; read-out: residual enzyme activity
Experimental: as §1

[16] = molecular target: MARK2/PAR-IBA (Homo sapiens, UniProt Q7KZI7); conditions: read-out: residual enzyme activity
Experimental: as §1

[17] = molecular target: TAOK1 (Homo sapiens, UniProt Q7L7X3); conditions: TAOK1, 1 µM; read-out: residual enzyme activity
Experimental: as §1

[18] = molecular target: STK16 (Homo sapiens, UniProt O75716); conditions: STK16, 1 µM; read-out: residual enzyme activity
Experimental: as §1

[19] = molecular target: SGK3/SGKL (Homo sapiens, UniProt Q96BR1); conditions: read-out: residual enzyme activity
Experimental: as §1

[20] = molecular target: GRK2 (Homo sapiens, UniProt P25098); conditions: GRK2, 1 µM; read-out: residual enzyme activity
Experimental: as §1

[21] = molecular target: WEE1 (Homo sapiens, UniProt P30291); conditions: WEE1, 1 µM; read-out: residual enzyme activity
Experimental: as §1

[22] = molecular target: CAMKK1 (Homo sapiens, UniProt Q8N5S9); conditions: CAMKK1, 1 µM; read-out: residual enzyme activity
Experimental: as §1

[23] = molecular target: FMS (Homo sapiens, UniProt P07333); conditions: read-out: residual enzyme activity
Experimental: as §1

[24] = molecular target: MEKK1 (Homo sapiens, UniProt Q13233); conditions: MEKK1, 1 µM; read-out: residual enzyme activity
Experimental: as §1

[25] = molecular target: MYO3B (Homo sapiens, UniProt Q8WXR4); conditions: read-out: residual enzyme activity
Experimental: as §1

[26] = molecular target: FRK/PTKS (Homo sapiens, UniProt P42685); conditions: read-out: residual enzyme activity
Experimental: as §1

[27] = molecular target: MLK1/MAP3K9 (Homo sapiens, UniProt P80192); conditions: MLK1/MAP3K9, 1 µM; read-out: residual enzyme activity
Experimental: as §1

[28] = molecular target: ITK (Homo sapiens, UniProt Q08881); conditions: read-out: residual enzyme activity
Experimental: as §1

[29] = molecular target: CDK16/CYCLIN Y (PCTAIRE) (Homo sapiens, UniProt Q00536); conditions: read-out: residual enzyme activity
Experimental: as §1

[30] = molecular target: ULK2 (Homo sapiens, UniProt Q8IYT8); conditions: ULK2, 1 µM; read-out: residual enzyme activity
Experimental: as §1

[31] = molecular target: ALK1/ACVRL1 (Homo sapiens, UniProt P37023); conditions: ALK1/ACVRL1, 1 µM; read-out: residual enzyme activity
Experimental: as §1

[32] = molecular target: CDK9/CYCLIN T1 (Homo sapiens, UniProt P50750); conditions: CDK9/cyclin T1, 1 µM; read-out: residual enzyme activity
Experimental: as §1

[33] = molecular target: BMX/ETK (Homo sapiens, UniProt P51813); conditions: read-out: residual enzyme activity
Experimental: as §1

[34] = molecular target: CDK1/CYCLIN B (Homo sapiens, UniProt P06493); conditions: read-out: residual enzyme activity
Experimental: as §1

Chain of MEKK1 (Q13233 whole entry, species assumed): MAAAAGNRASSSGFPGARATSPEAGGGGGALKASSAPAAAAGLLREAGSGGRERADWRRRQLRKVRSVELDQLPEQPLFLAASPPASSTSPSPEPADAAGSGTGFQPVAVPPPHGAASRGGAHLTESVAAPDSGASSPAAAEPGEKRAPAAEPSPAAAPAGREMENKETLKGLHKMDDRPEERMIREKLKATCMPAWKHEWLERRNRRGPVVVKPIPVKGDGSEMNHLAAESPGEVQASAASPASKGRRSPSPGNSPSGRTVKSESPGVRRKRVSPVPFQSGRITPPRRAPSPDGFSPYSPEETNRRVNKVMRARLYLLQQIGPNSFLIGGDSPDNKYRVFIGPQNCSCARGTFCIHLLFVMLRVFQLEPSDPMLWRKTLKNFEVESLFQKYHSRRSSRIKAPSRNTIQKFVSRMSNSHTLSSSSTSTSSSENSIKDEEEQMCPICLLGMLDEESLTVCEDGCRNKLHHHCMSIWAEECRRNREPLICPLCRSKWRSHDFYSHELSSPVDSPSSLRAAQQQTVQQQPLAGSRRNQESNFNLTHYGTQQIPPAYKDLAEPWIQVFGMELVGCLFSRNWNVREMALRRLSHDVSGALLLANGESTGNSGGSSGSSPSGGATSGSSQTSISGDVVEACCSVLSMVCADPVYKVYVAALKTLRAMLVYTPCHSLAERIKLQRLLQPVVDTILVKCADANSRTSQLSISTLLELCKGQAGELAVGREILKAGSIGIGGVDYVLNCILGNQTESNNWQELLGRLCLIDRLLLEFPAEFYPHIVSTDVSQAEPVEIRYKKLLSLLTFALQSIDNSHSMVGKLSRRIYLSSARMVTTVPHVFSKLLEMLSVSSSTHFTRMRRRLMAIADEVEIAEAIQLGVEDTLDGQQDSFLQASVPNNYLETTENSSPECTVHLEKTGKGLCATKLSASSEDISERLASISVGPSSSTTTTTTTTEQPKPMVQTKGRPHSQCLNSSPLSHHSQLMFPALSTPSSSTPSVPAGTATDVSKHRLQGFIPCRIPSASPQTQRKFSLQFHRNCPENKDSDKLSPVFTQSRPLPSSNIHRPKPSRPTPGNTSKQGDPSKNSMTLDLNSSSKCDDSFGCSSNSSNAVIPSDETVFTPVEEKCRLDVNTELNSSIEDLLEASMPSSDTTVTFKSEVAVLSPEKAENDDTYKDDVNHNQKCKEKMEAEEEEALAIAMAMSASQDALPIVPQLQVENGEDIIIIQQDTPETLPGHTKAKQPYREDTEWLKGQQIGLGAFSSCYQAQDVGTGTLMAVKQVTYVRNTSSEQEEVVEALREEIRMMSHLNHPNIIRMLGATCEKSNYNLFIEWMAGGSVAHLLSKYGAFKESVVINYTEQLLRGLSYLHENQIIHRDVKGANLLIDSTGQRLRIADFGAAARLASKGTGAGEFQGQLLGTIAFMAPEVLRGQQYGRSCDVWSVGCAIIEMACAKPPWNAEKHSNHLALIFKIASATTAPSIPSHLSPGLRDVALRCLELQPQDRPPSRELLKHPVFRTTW
Chain of IKKB/IKBKB (O14920 whole entry): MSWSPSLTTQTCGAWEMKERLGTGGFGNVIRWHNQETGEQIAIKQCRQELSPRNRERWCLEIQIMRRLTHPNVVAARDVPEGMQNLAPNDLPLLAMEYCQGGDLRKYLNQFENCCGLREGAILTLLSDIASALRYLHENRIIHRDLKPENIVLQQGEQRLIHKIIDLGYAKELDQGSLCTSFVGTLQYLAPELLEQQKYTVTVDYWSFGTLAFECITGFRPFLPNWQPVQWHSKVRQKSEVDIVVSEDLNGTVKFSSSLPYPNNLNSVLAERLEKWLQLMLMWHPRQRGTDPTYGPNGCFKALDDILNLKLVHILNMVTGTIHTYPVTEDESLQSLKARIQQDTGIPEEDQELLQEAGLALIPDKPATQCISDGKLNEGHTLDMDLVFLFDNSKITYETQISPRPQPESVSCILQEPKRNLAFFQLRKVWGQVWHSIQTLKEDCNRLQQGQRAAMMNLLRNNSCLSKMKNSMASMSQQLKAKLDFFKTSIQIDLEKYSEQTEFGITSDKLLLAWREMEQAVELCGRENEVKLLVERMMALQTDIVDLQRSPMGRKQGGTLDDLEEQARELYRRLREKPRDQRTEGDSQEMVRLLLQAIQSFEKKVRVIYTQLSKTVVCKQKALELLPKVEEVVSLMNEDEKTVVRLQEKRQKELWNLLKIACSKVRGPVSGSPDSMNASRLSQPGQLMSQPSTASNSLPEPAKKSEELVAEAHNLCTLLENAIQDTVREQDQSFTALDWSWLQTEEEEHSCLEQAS
Chain of WEE1 (P30291 whole entry, species assumed): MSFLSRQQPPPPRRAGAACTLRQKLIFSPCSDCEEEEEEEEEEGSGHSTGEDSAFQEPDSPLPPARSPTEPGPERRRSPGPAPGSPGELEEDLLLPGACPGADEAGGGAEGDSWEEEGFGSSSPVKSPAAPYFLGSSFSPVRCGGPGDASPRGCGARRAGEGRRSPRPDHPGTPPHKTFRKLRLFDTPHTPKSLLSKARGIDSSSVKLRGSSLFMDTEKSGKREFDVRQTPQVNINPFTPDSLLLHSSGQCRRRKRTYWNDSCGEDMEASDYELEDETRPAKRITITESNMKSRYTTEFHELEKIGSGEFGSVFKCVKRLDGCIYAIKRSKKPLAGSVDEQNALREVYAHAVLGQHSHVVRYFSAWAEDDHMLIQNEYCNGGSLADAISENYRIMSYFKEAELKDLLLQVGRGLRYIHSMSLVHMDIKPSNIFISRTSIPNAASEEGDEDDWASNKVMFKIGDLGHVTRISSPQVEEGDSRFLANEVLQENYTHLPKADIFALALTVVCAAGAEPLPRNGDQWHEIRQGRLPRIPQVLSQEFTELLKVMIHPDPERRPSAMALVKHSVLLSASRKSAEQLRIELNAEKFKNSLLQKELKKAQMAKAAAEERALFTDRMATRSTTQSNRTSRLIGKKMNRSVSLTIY
Chain of DYRK4 (Q9NR20 whole entry, species assumed): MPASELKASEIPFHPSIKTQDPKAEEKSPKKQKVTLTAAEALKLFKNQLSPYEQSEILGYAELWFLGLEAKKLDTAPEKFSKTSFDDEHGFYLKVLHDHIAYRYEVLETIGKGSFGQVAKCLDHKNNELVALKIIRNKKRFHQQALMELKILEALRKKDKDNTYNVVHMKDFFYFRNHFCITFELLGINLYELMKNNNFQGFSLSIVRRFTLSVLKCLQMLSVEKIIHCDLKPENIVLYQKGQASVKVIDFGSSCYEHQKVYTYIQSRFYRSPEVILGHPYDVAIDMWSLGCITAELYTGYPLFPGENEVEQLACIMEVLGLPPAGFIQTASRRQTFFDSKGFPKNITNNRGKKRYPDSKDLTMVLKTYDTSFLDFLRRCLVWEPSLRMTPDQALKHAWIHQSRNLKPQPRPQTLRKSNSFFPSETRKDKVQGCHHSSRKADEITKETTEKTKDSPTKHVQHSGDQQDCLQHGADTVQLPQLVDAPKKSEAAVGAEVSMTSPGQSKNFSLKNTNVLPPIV
Chain of LCK2/ICK (Q9UPZ9 whole entry): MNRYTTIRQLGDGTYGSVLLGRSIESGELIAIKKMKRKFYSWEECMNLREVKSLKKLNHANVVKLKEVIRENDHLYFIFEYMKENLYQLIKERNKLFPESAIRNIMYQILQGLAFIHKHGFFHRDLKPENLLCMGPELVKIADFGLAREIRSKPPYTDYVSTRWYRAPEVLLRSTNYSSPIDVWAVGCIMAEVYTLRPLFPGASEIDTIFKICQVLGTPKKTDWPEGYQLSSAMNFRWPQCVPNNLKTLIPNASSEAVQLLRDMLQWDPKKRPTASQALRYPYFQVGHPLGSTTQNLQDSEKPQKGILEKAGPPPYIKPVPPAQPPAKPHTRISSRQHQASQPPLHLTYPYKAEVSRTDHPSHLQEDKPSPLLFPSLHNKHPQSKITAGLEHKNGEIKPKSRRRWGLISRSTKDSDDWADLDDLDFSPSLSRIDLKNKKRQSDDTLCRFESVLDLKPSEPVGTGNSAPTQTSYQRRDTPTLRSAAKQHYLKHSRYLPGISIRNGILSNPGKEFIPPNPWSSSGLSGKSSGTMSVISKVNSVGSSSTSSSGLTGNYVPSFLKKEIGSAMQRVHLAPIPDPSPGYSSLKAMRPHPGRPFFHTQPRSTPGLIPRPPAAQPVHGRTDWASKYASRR
Chain of EPHB3 (P54753 34-998, species assumed): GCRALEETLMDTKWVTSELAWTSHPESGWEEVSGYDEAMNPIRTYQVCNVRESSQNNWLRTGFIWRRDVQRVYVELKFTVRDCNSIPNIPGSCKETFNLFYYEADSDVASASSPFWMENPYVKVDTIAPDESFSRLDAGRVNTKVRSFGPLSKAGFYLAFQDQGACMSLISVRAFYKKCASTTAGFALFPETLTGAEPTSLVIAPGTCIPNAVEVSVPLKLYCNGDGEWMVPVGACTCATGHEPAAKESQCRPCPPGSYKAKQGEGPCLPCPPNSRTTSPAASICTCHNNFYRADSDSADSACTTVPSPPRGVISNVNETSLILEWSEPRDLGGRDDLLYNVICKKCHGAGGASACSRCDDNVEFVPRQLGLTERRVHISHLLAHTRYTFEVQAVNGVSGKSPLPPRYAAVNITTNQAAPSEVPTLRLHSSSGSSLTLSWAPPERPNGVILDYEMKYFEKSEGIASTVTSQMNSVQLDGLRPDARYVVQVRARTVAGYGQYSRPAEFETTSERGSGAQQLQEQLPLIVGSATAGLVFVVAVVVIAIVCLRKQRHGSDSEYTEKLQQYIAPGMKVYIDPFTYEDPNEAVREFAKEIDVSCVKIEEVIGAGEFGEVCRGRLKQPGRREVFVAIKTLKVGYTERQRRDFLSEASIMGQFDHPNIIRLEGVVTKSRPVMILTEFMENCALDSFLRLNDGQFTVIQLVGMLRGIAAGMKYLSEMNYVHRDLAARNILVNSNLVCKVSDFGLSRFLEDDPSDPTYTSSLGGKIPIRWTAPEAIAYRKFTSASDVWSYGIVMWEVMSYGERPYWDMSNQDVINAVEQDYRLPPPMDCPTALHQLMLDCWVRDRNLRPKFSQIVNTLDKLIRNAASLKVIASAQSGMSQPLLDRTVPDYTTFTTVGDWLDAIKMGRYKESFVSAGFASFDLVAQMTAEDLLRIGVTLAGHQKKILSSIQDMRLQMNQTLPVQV

Row | SMILES | remaining activity at 1 µM [1] [%] | remaining activity at 1 µM [2] [%] | remaining activity at 1 µM [3] [%] | remaining activity at 1 µM [4] [%] | remaining activity at 1 µM [5] [%] | remaining activity at 1 µM [6] [%] | remaining activity at 1 µM [7] [%] | remaining activity at 1 µM [9] [%] | remaining activity at 1 µM [10] [%] | remaining activity at 1 µM [11] [%] | remaining activity at 1 µM [12] [%] | remaining activity at 1 µM [13] [%] | remaining activity at 1 µM [15] [%] | remaining activity at 1 µM [17] [%] | remaining activity at 1 µM [18] [%] | remaining activity at 1 µM [19] [%] | remaining activity at 1 µM [20] [%] | remaining activity at 1 µM [21] [%] | remaining activity at 1 µM [22] [%] | remaining activity at 1 µM [23] [%] | further results
1 | Cc1ccc(Nc2ncc3c(n2)C2(CC2)C(=O)N(c2cc(NC(=O)c4cccc(C(F)(F)F)c4)ccc2C)C3)cn1 [Compound 51, N-(4-methyl-3-(2'-((6-methylpyridin-3-yl)amino)-7'-oxo-5'H-spiro[cyclopropane-1,8'-pyrido[4,3-d]pyrimidine]-6'(7'H)-yl)phenyl)-3-(trifluoromethyl)benzamide] | > 40 | > 40 | > 40 | > 40 | ≤ 40 | > 40 | > 40 | ≤ 40 | > 40 | ≤ 40 | > 40 | > 40 | > 40 | ≤ 40 | > 40 | > 40 | > 40 | > 40 | > 40 | ≤ 40 | remaining activity at 1 µM ([8]; ARKS/NUAKl, 1 µM): > 40%; remaining activity at 1 µM ([14]; GSK3b): > 40%; remaining activity at 1 µM ([16]; MARK2/PAR-IBa): > 40%; remaining activity at 1 µM [24]: > 40%; remaining activity at 1 µM ([25]; MYO3b): > 40%; remaining activity at 1 µM [26]: ≤ 40%; remaining activity at 1 µM [27]: ≤ 40%; remaining activity at 1 µM [28]: > 40%; remaining activity at 1 µM [29]: > 40%; remaining activity at 1 µM [30]: > 40%; remaining activity at 1 µM [31]: > 40%; remaining activity at 1 µM [32]: > 40%; remaining activity at 1 µM [33]: ≤ 40%; remaining activity at 1 µM [34]: > 40%
2 | Cc1cn(-c2cc(C(=O)Nc3ccc(C)c(N4Cc5cnc(NC6CC6)nc5C5(CC5)C4=O)c3)cc(C(F)(F)F)c2)cn1 [Compound 8, N-(3-(2'-(cyclopropylamino)-7'-oxo-5'H-spiro[cyclopropane-1,8'-pyrido[4,3-d]pyrimidine]-6'(7'H)-yl)-4-methylphenyl)-3-(4-methyl-1H-imidazol-1-yl)-5-(trifluoromethyl)benzamide] | > 40 | > 40 | > 40 | > 40 | ≤ 40 | > 40 | > 40 | ≤ 40 | > 40 | ≤ 40 | > 40 | > 40 | > 40 | ≤ 40 | > 40 | > 40 | > 40 | > 40 | > 40 | ≤ 40 | remaining activity at 1 µM ([8]; ARK5/NUAK1, 1 µM): > 40%; remaining activity at 1 µM ([14]; GSK3B): > 40%; remaining activity at 1 µM ([16]; MARK2/PAR-IBA): > 40%; remaining activity at 1 µM [24]: > 40%; remaining activity at 1 µM ([25]; MYO3B): > 40%; remaining activity at 1 µM [26]: ≤ 40%; remaining activity at 1 µM [27]: > 40%; remaining activity at 1 µM [28]: > 40%; remaining activity at 1 µM [29]: > 40%; remaining activity at 1 µM [30]: > 40%; remaining activity at 1 µM [31]: > 40%; remaining activity at 1 µM [32]: > 40%; remaining activity at 1 µM [33]: ≤ 40%; remaining activity at 1 µM [34]: > 40%
